Source: article PMC12040169 (PLOS Biology, 2025)

Assay: in vitro
Conditions: human, hela cells, % viability

Row | Structure (SMILES) | viability at 28.5 h, 10 µM [%]
1 | Cc1ccc2nsnc2c1NC(=O)Cc1cccc2ccccc12 [CBK266279] | 98.8
2 | CCOC(=O)C1CCCN(CCC(=O)Nc2cccc(F)c2)C1 (centres unmarked) [CBK264275C] | 107
3 | O=C(CCCN1C(=O)c2cccc3cccc(c23)C1=O)Nc1cccnc1 [CBK262560] | 81.5
4 | FC(F)(F)c1cc(-c2cn3ccnc3c(Nc3ccc4[nH]ccc4c3)n2)cc(C(F)(F)F)c1 [CBK066356] | 91.7
5 | O=C(O)CCCCCNS(=O)(=O)c1ccc(Cl)cc1 [CBK261940] | 81.4
6 | COc1cc(CN2CCN(Cc3cccc([N+](=O)[O-])c3)CC2)c([N+](=O)[O-])cc1OC [CBK263111] | 99.9
7 | CC(C)(C)C1=CC2=NC3(CCC3)C3C[C@@](C)(O)[C@@H](O)[C@@H]3N2O1 (some centres unmarked) [CBK303263] | 112
8 | Nc1nc(=O)n([C@H]2C[C@@H](O)[C@@H](CO)O2)cc1O [CBK201221] | 98.2
9 | COc1ccc(Cl)cc1NC(=O)C(=O)NCC1CCCO1 (centres unmarked) [CBK263823] | 91.8
10 | CC(=O)Nc1cccc(Oc2nccnc2-c2cc3ccccc3s2)c1 [CBK106784] | 101
11 | Cc1[nH]ncc1CN1CCCC(c2cc3ccccc3cn2)C1 (centres unmarked) [CBK285029] | 108
12 | Cc1c(C)c2c(O)n(-c3ccccc3)nc2[nH]c1=O [CBK287891] | 89.3
13 | CC1=[N+]([O-])C2(N)CCc3nonc3C2(O)C1 (centres unmarked) [CBK261513] | 87.9
14 | Cc1c(S(=O)(=O)Nc2cccc(C(=O)OCC3CCCN(C)C3)c2)sc2ccc(Cl)cc12 (centres unmarked) [CBK167735G] | 109
15 | O=C(c1ccccc1NS(=O)(=O)c1cccc2cccnc12)N1CCOCC1 [CBK043338] | 87.1
16 | Cc1cc(CN(C)C(=O)Cc2csc(NC(=O)c3ccoc3C)n2)no1 [CBK305779] | 102
17 | Cc1ccc(S(=O)(=O)NCC(=O)O)cc1[N+](=O)[O-] [CBK034459] | 114
18 | CS(=O)(=O)c1ccc(-c2ccc3c(n2)CCN(C2CCN(C(=O)OCc4ccccc4)CC2)C3)cc1 [CBK169530] | 81.8
19 | Cc1ccc(C2(C(=O)NCCCn3ccnc3C)CCOCC2)cc1 [CBK281588] | 91.6
20 | CN(CCc1ccncc1)C(=O)c1[nH]nc2c1CCCCC2 [CBK283151] | 96.9
21 | CC1(C)COC(=O)N1C1CCN(C(=O)c2ccno2)CC1 [CBK044383] | 95.7
22 | COCCCOc1nccnc1NC(C)C [CBK115876] | 90
23 | CN(c1ncc(-c2ccccc2)cc1C(=O)NCc1ccco1)S(C)(=O)=O [CBK076506] | 86.3

Row | Structure (SMILES) | viability at 28.5 h, 10 µM [%]
24 | O=C(NC1CCCCC1)c1csc(-c2ccncc2)n1 [CBK288591] | 64.2
25 | OCCN1CC2(CCN(CC3COc4ccccc4O3)CC2)c2ccccc21 (centres unmarked) [CBK143955] | 86.7
26 | O=S(=O)(N1CCCCCC1)N1CCN(S(=O)(=O)N2CCOCC2)CC1 [CBK269152] | 100
27 | CCN(CC)C(=O)CN1CCN(c2nccnc2OCCN2C(=O)CCC2=O)CC1 [CBK084297] | 102
28 | c1ccc(Cn2ccc3c(N4CCNCC4)nccc32)cc1 [CBK051672C] | 87.9
29 | Cc1cc(-c2cc(=O)n(Cc3ccccc3F)nc2C2CC2)on1 [CBK284366] | 87.2
30 | COCC1CN(S(=O)(=O)c2cnc3ccsc3c2)C1 [CBK304768] | 72.4
31 | Cc1cc(NS(=O)(=O)c2ccc(NC(=O)Nc3ccc4c(c3)OCO4)cc2)no1 [CBK268139] | 104
32 | O=C(O)c1ccc(Nc2ncnc3c2cnn3Cc2ccccc2)cc1 [CBK263803] | 92.1
33 | Cc1ccc(-c2nn(-c3ccccc3)cc2C2CC(c3cccs3)=NN2C(=O)CCC(=O)O)cc1 (centres unmarked) [CBK296126] | 107
34 | C=CCOc1ccc(Cl)cc1CNc1cccc(C(=O)O)c1 [CBK078460] | 96.6
35 | O=C(c1ccc(OC(F)F)cc1)N1CCCCC1 [CBK074223] | 86.7
36 | Clc1ccc(SCCN2CCOCC2)cc1 [CBK265055G] | 98.8
37 | CC1(C)COC(=O)N1C1CCN(C(=O)c2cncc(Br)c2)CC1 [CBK038781] | 81.6
38 | COC(=O)c1ccc(CN2CCN(CCN3C(=O)c4cccc5cccc(c45)C3=O)CC2)cc1 [CBK074518] | 88.8
39 | COc1ccc(C(=O)NC(c2ccc(OC)c(OC)c2)c2cc(Cl)c3cccnc3c2O)cc1 (centres unmarked) [CBK263992] | 96.3
40 | CN1CCN(S(=O)(=O)c2ccc(F)cc2)CC1 [CBK050491] | 88
41 | O=C(NC(c1cccnc1)c1ccc2c(c1)OCO2)C1CCN(CCc2cccs2)CC1 (centres unmarked) [CBK148503] | 105
42 | c1coc(-c2ccc3c(c2)COC2(CCN(CCc4ccc5c(c4)OCO5)CC2)O3)c1 [CBK061057] | 90.4
43 | Cn1nccc1C(=O)N[C@H]1C2CCCCC2[C@@H]1c1ccccc1 (some centres unmarked) [CBK285127] | 102
44 | O=C(CSc1nnc(Cc2cccs2)n1-c1ccccc1)Nc1ccc(F)c(Cl)c1 [CBK267589] | 92.3
45 | OCCN1CCN(Cc2cc(Br)cs2)CC1 [CBK261758] | 96
46 | CS(=O)(=O)N1CC2(CCN(C(=O)[C@@H]3CNC[C@H]3c3ccccc3)CC2)c2ccccc21 [CBK022572] | 104

Row | Structure (SMILES) | viability at 28.5 h, 10 µM [%]
47 | Cc1nc(C)c(CCC(=O)Nc2cccc(F)c2)c(=O)[nH]1 [CBK305026] | 90.3
48 | CC(C)C(=O)Nc1cc2cccnc2c(-c2ccsc2)n1 [CBK081259] | 100
49 | O=C1NCC2(CCN(C(=O)C3CCCC3)CC2)Oc2ccccc21 [CBK282920] | 94.1
50 | O=C(COc1ccc2ccccc2c1)N[C@@H](C(=O)O)c1ccc(O)cc1 [CBK286571] | 88.8
51 | CN(C)/C=N/c1ncnc2c1nc(Br)n2C1CC(O)C(CO)O1 (centres unmarked) [CBK201277] | 93.6
52 | C[C@@H](Nc1cncc(-c2cccs2)n1)c1ccccc1 [CBK065711] | 108
53 | COc1cc(C2C3=C(CC(C)(C)CC3=O)Nc3ncnn32)cc(OC)c1OC (centres unmarked) [CBK265646] | 86.2
54 | COc1ccc(C(=O)N2CCC3(CCCN(CCN4C(=O)c5ccccc5C4=O)C3)C2)cc1OC (centres unmarked) [CBK132862] | 98.1
55 | O=C(CO)N1CC2(CCN(CC3COc4ccccc4O3)CC2)c2ccccc21 (centres unmarked) [CBK143951] | 105
56 | CCCC(=O)N1CCC(c2cc3n(n2)[C@@H](C(F)(F)F)C[C@@H](C)N3)C1 (some centres unmarked) [CBK282237] | 99.2
57 | COc1cc(F)ccc1-c1cnc(N)c2ncccc12 [CBK067585] | 81.4
58 | CC(NC(=O)N1CCSCC1)c1cccc(N2CCCC2)c1 (centres unmarked) [CBK305230] | 92
59 | O=C(O)C1CCN(c2cncc(-c3ccc4ccccc4c3)n2)CC1 [CBK065801] | 95.5
60 | CCCCOc1nccnc1/C=C/c1ccccc1 [CBK106890] | 92
61 | CN(C)c1ccc(-n2ccn(S(=O)(=O)c3ccc(Oc4ccccc4)cc3)c2=O)cc1 [CBK106608] | 89.3
62 | CC(C)c1ccc(/C=C/C(=O)N2CCN(C3CCN(C)CC3)CC2)cc1 [CBK149094] | 105
63 | Cn1c(N2CCCC(C(=O)NCC3CC3)C2)nc2ccccc21 (centres unmarked) [CBK283987] | 92.6
64 | O=C(O)CCSc1nnnn1C1CCCCC1 [CBK263052] | 88.9
65 | CN1CCN(C(=S)SCc2nc(N)nc(Nc3ccc(F)cc3)n2)CC1 [CBK265230] | 81.4
66 | Nc1ncnc2c1ncn2C1OC(CO)C(O)C1O (centres unmarked) [CBK024679] | 92.6
67 | CC(=O)Nc1cccc(-c2cncc(NCc3cccc(Cl)c3)n2)c1 [CBK065236] | 97.2
68 | Fc1ccccc1-c1cn2ccnc2c(N2CCOCC2)n1 [CBK036584] | 105
69 | Cc1cc(C)c2c(CC(=O)NNC(=O)COc3ccccc3)coc2c1 [CBK269169] | 94.1

Row | Structure (SMILES) | viability at 28.5 h, 10 µM [%]
70 | O=C(CN1CCN(C(c2ccccc2)c2ccccc2)CC1)Nc1c2c(nc3ccccc13)CCC2 [CBK278299G] | 92.7
71 | O=C1NC(=O)c2cc(S(=O)(=O)NCCCO)cc3cccc1c23 [CBK267602] | 110
72 | O=c1[nH]c(=O)n([C@@H]2O[C@H](CO)[C@H](O)C2O)cc1I (some centres unmarked) [CBK201304] | 94.6
73 | O=C(O)c1cc2cc(F)ccc2[nH]1 [CBK017929] | 86.3
74 | CCC1C(=O)NCCN1C(=O)c1cc2cc(C)ccc2n1C (centres unmarked) [CBK281729] | 110
75 | CCOC(=O)c1c(-c2ccc(-c3ccccc3)cc2)csc1NC(=O)c1ccccc1C(=O)O [CBK296096] | 106
76 | OCc1ccc(CN2Cc3nc[nH]c3C[C@H]2c2nc(Cc3ccccc3)no2)o1 [CBK288955] | 93.8
77 | CCCn1ccnc1CN1CCCC(CC2CC2)(C(=O)O)C1 (centres unmarked) [CBK307205] | 100
78 | O=C1CC(c2ccc(Cl)cc2)CC(=O)C1=CNCCN1CCN(C(=O)Nc2ccccc2)CC1 (centres unmarked) [CBK263671] | 95.3
79 | Clc1ccc2c(c1)OCC[C@@H]2Oc1cncc(N2CCNCC2)n1 [CBK172313G] | 86.2
80 | Cc1ccc(Nc2nc(N3CCOCC3)nc3nccnc23)cc1 [CBK287664] | 120
81 | Oc1ccc(CCNc2ncnc3[nH]cnc23)cc1 [CBK017724C] | 101
82 | COc1ccc(C(=O)Nc2cc3ccccc3c(N3CCNCC3)n2)cc1 [CBK036344T] | 91.2
83 | Cc1c(CN2CCC3(CC2)CC(c2ccccc2)CN(C)C3)cnn1C (centres unmarked) [CBK306666] | 105
84 | N=C(N/N=C\c1ccncc1)N/N=C\c1ccncc1 [CBK263278C] | 94.1
85 | COc1cccc(-c2noc(Cn3cnc4sccc4c3=O)n2)c1 [CBK297127] | 85.3
86 | COc1ccc(C)cc1N(C(=O)c1ccccn1)c1nc2ccccc2s1 [CBK297944] | 97.7
87 | COCC(=O)N1CCc2sccc2C1c1ccc(NC(=O)c2ccc(OC)cc2)cc1 (centres unmarked) [CBK286467] | 103
88 | O=C(Oc1cccc2cccnc12)c1cccc(S(=O)(=O)Oc2cccc3cccnc23)c1 [CBK264545] | 58.4
89 | CCC(CC)Oc1ccc(C2(C)NC(=O)NC2=O)cc1 (centres unmarked) [CBK288409] | 96.4
